Data as given in patent publication EP0544958A1, “Cephalosporin compounds and processes for preparing the same” (TANABE SEIYAKU CO., LTD., priority 1991, dated 1993).
Structures can show the parent of a compound that is named as a salt.

Tests used:
[1] = test system: Citrobacter freundii GN346; assay: antimicrobial activity against β-lactamase-producing bacteria compared with ceftazidime; assay type: cell-based; settings: relative to ceftazidime
[2] = test system: Staphylococcus aureus 209P JC-1; assay: antimicrobial activity compared with ceftazidime; assay type: cell-based; settings: relative to ceftazidime
[3] = test system: Staphylococcus epidermidis Kawamura; assay: antimicrobial activity compared with ceftazidime; assay type: cell-based; settings: relative to ceftazidime
mice = assay: acute toxicity by intravenous administration; assay type: in vivo; settings: dose of 1 g/kg, five mice, within five days after administration
Excerpt: Moreover, the desired compounds [I] or pharmaceutically acceptable salts thereof have high absorbability in the living tissue, and the treatment effects thereof last for a long time so that the compounds [I] of the present invention show an excellent defense effect in infectious diseases caused by various microorganisms including Staphylococcus aureus and Pseudomonas aeruginosa. In addition, the desired compounds [I] of the present invention and pharmaceutically acceptable salts thereof have low toxicity and show high safety as medicaments.

[4] = test system: clinical isolates of MRSA; assay: antibacterial activity (90 % inhibitory concentration) against clinical isolates; assay type: cell-based, methicillin resistant Staphylococcus aureus (MRSA); settings: relative to ceftazidime

Row | Structure (SMILES) | antimicrobial activity, times stronger than ceftazidime [1] | antimicrobial activity, times stronger as compared with ceftazidime [2] | antimicrobial activity, times stronger as compared with ceftazidime [3] | acute toxicity (mice that died) (mice) | antibacterial activity (90 % inhibitory concentration), times superior to that of ceftazidime [4]
1 | Nc1nc(/C(=N/OC(C(=O)O)c2ccc(O)c3[nH]c(=O)ccc23)C(=O)N[C@@H]2C(=O)N3C(C(=O)[O-])=C(C[n+]4cccc5ccccc54)CS[C@H]23)cs1 (stereo partly drawn) [Example 3, 7β-{(Z)-2-(2-aminothiazol-4-yl)-2-[(8-hydroxy-2-oxo-1H-quinolin-5-yl)(caboxy)methyloxyimino]acetamido}-3-(1-quinoliniomethyl)-3-cephem-4-carboxylic acid sodium salt] | more than 4 times | more than 32 times | – | – | –
2 | Nc1nc(/C(=N/OC(C(=O)O)c2ccc(O)c3[nH]c(=O)ccc23)C(=O)N[C@@H]2C(=O)N3C(C(=O)[O-])=C(C[n+]4ccccc4)CS[C@H]23)cs1 (stereo partly drawn) [Example 4, 7β-{(Z)-2-(2-aminothiazol-4-yl)-2-[(8-hydroxy-2-oxo-1H-quinolin-5-yl)(carboxy)methyloxyimino]acetamido}-3-(1-pyridiniomethyl)-3-cephem-4-carboxylic acid sodium salt] | more than 4 times | – | more than 16 times | – | –
3 | Cc1c(N)ccc[n+]1CC1=C(C(=O)[O-])N2C(=O)[C@@H](NC(=O)/C(=N\OC(C(=O)O)c3ccc(O)c4[nH]c(=O)ccc34)c3csc(N)n3)[C@H]2SC1 (stereo partly drawn) [Example 27, 7β-{(Z)-2-(2-aminothiazol-4-yl)-2-[(8-hydroxy-2-oxo-1H-quinolin-5-yl)(carboxy)methyloxyimino]acetamido}-3-(3 amino-2-methyl-1-pyridiniomethyl)-3-cephem-4-carboxylic acid sodium salt] | – | – | more than 16 times | none of the five mice | about 16 times
